This passage reports IC50 and inhibition results from US20150353495A1 (PORTOLA PHARMACEUTICALS, INC., priority 2010, published 2015).

Where only a bound is given, the exact number is not on record here.

Assay [1] concerns the target T1, TYK2 (Homo sapiens, UniProt P29597).
T1 construct: 5 μl of catalytic domain recombinant Kinase enzyme+Tyr peptide substrate (Invitrogen, CA); purchased Invitrogen
T1 sequence (P29597 897-1176 limits assumed): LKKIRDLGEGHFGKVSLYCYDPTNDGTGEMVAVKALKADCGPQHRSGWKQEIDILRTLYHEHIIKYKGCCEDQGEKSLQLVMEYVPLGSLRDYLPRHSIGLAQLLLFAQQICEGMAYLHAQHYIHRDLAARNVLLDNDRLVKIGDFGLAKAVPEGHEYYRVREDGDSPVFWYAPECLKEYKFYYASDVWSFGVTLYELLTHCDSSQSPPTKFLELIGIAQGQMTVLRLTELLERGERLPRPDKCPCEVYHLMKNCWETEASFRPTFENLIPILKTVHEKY
Nature of the assay: Z'-LYTE kinase assay TYK2. Type of assay: biochemical. As for the experimental part:
JAK and TYK2 tyrosine phosphorylation activity is measured using the Z′-LYTE™ Technology developed by Invitrogen Corporation (Carlsbad, Calif.). For JAK1, JAK2 and JAK3 the Z′-LYTE™ Kinase Assay Kit-Tyr6 Peptide (part number PV4122) was used. For TYK2 the Z′-LYTE™ Kinase Assay Kit-Tyr6 Peptide (part number PV3192) was used. The Z′-LYTE™ biochemical assay employs a fluorescence resonance energy transfer (FRET) coupled-enzyme format and is based on the differential sensitivity of phosphorylated and non-phosphorylated peptides to proteolitic cleavage. The assay uses a synthetic peptide substrate that is labelled with a donor fluorophore (coumarin) and an acceptor fluorophore (fluorescein) that make up a FRET pair. In the primary reaction (the Kinase Reaction), the kinase transfers the γ-phosphate of ATP to a single tyrosine residue on the substrate, while the presence of a kinase inhibitor in the primary reaction suppresses phosphorylation. In the secondary reaction (the Development Reaction), a site-specific protease (the Development Reagent) is added. The development buffer quenches the Kinase Reaction, while the protease recognizes and cleaves non-phosphorylated Z′-LYTE™ peptide substrate. Cleavage disrupts FRET between the donor and acceptor fluorophores on the non-phosphoryleted substrate, while uncleaved, phosphorylated substrate maintains FRET.
To test the ability of candidate molecules to inhibit JAK tyrosine phosphorylation activity, molecules are reconstituted in 100% DMSO and serially diluted 1:10 in polypropylene v-bottom microtiter plates. The candidate molecules are then diluted 1:25 into kinase buffer and 2.5 μl transferred into duplicate wells of a 384 well low volume black microtiter assay plate (Corning, USA). The final DMSO concentration in the assay is 1%. The kinase reaction contains 2.5 μl of a candidate molecule, 5 μl of catalytic domain recombinant Kinase enzyme+Tyr peptide substrate (Invitrogen, CA) and 2.5 μl ATP (Invitrogen, CA). The kinase reaction is allowed to procede for 1 hour at room temperature. The protease reaction is initiated by the addition of 5 μl Development Reagent (Invitrogen, CA). After 1 hour incubation at room temperature the fluorescence is measured using a FlexStation plate reader (Molecular Devices, Sunnyvale, Calif.). The reader settings used are as follows: Fluorescence mode, endpoint, top read, excitation 400 nm, emission 445 nm and 520 nm, Auto Cutoff 435 nm and 515 nm, PMT sensitivity high, 6 reads per well Inhibition of JAK kinase activity is calculated as the percent phosphorylation of substrate in the presence of inhibitor compared to the percent phosphorylation of substrate in the absence of inhibitor. IC50's were derived using Xlfit 4.3 (IDBS, UK), 4 parameter logistic model 205: Y=(A+4B-A)/(1+((C/x)AD)))).

In assay [2] the target is T2, JAK1 (Homo sapiens, UniProt P23458).
T2 construct: 5 μl of catalytic domain recombinant Kinase enzyme+Tyr peptide substrate (Invitrogen, CA); purchased Invitrogen
T2 sequence (P23458 875-1153 limits assumed): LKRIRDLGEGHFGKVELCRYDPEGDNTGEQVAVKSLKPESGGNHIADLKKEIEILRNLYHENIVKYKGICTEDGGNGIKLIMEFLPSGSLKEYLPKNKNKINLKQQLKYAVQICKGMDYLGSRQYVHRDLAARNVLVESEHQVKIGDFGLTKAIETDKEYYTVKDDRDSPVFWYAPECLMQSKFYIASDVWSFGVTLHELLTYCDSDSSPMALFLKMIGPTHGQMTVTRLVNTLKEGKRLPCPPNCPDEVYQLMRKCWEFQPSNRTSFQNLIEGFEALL
Nature of the assay: Z'-LYTE kinase assay JAK1. It is filed as biochemical. Put shortly: (§1)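 In duplicate wells, each test molecule (1% final DMSO) is incubated with recombinant kinase catalytic domain, Tyr6 peptide substrate and ATP for one hour at room temperature; a site-specific protease is then added for another hour before fluorescence reading.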

Assay [3] addresses T3, JAK2 (Homo sapiens, UniProt O60674).
T3 construct: 5 μl of catalytic domain recombinant Kinase enzyme+Tyr peptide substrate (Invitrogen, CA); purchased Invitrogen
The experiment in a line: Z'-LYTE kinase assay JAK2. It is filed as biochemical. Put shortly: as §1

The target in assay [4] is T4, JAK3 (Homo sapiens, UniProt P52333).
T4 construct: 5 μl of catalytic domain recombinant Kinase enzyme+Tyr peptide substrate (Invitrogen, CA); purchased Invitrogen
T4 sequence (P52333 822-1111 limits assumed): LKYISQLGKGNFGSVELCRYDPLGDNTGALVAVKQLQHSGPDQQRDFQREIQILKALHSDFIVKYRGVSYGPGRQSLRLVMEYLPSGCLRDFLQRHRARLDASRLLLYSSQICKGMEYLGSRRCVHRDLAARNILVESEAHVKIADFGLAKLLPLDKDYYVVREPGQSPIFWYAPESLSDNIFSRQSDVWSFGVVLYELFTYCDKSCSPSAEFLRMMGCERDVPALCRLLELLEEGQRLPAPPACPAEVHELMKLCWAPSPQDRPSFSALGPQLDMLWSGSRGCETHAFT
The experiment in a line: Z'-LYTE kinase assay JAK3. It is filed as biochemical. In a few lines:
as §1

The test system of assay [5] is JAK1/3 signaling to STAT6 in Ramos B cells. The experiment in a line: IL4 stimulation of JAK1/3 signaling to STAT6 in Ramos B cells (pSTAT6 Y641, FACS). It is filed as cell-based. The conditions noted are these: Homo sapiens; for inhibition at 1 µM: 1.0 uM compound, read-out: IL-4/STAT6 in Ramos Percent Inhibition at 1.0 uM; for inhibition at 0.2 µM: 0.2 uM compound, read-out: IL-4/STAT6 in Ramos Percent Inhibition at 0.2 uM. On the procedure: IL4 stimulation of JAK1/3 signaling to STATE in Ramos B cells:
As an alternative strategy to measure effect of JAK3 inhibitors on JAK1/3 dependent cytokine signaling pathways, IL4 stimulation of the Ramos Burkett's B cell line is used. IL4 engages a receptor consisting of the IL4 receptor alpha chain and the common gamma chain. […] Ramos B cells are suspended in tissue culture media containing 10% fetal calf serum at 10×10̂6 cells/ml. 100 μl aliquots are pre-treated for 1 hour with various concentrations of compound, and then stimulated for 15 minutes with 15 ng IL4. The signaling reaction is terminated by fixing in 2% paraformaldehyde for 10 minutes at room temperature. Fixed cells are then washed and permeablized by suspension in 100% methanol at −80° C. Following overnight incubation at 4° C., cells are washed and resuspended in PBS containing 0.5% bovine serum albumin containing pSTAT6 Y641-PE conjugated antibody. After 1 hour incubation, cells are washed and the extent of STAT6 phosphorlyation in Ramos cells is measured by FACS analysis.

One may read the IC50 as the concentration that gives 50% inhibition. A low value points to higher potency.

T3 sequence (O60674 849-1124 limits assumed): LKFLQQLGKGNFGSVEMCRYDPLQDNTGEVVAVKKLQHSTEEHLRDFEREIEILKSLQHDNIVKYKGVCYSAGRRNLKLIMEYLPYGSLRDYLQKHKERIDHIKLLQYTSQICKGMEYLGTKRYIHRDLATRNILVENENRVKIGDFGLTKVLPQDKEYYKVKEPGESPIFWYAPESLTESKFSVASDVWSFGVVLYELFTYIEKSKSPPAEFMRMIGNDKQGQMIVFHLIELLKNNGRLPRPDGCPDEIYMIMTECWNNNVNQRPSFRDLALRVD

With `NC(=O)c1cnc(Nc2ccccc2)cc1NCc1ccccc1` [Example 9, 4-(benzylamino)-6-(phenylamino)nicotinamide], the IC50 in assay [1], in assay [2] and in assay [3] was above 1000 nM throughout.
Regarding `NC(=O)c1cnc(Nc2ccc(Cl)cc2)cc1NCc1ccccc1` [Example 13, 4-(benzylamino)-6-(4-chlorophenylamino)nicotinamide], the IC50 in assay [1] was above 1000 nM; in assay [2] it was above 1000 nM; in assay [3] it was above 1000 nM; in assay [4] it was 100 to 1000 nM.
For `Cc1cccc(Nc2cc(Nc3ccc(OCCN4CCCC4)cc3)ncc2C(N)=O)c1` [Example 14, 4-(3-toluidino)-6-(4-(2-(pyrrolidin-1-yl)ethoxy)phenylamino)nicotinamide], the IC50 in assay [1] is 100 to 1000 nM; in assay [2] it was above 1000 nM; in assay [3] it was 100 to 1000 nM; in assay [4], 100 to 1000 nM.
With `COc1ccc(Nc2cc(Nc3ccc(N4CCOCC4)cc3)c(C(N)=O)cn2)cc1` [Example 17, 6-(4-methoxyphenylamino)-4-(4-morpholinophenylamino)nicotinamide], the IC50 was above 1000 nM in assay [1], above 1000 nM in assay [2], above 1000 nM in assay [3] and 100 to 1000 nM in assay [4].
In the case of `CC(=O)Nc1cccc(Nc2nc(NC3CCCC3)c(C(N)=O)cc2F)c1` [Example 18, 6-(3-acetamidophenylamino)-2-(cyclopentylamino)-5-fluoronicotinamide], the IC50 in assay [1] was 100 to 1000 nM; in assay [2], above 1000 nM; in assay [3], above 1000 nM; in assay [4], above 1000 nM.
For the compound `NC(=O)c1cnc(Nc2cccc(N3CCCCC3)c2)cc1NCc1cccc(F)c1` [Example 68, 4-(3-fluorobenzylamino)-6-(3-(piperidin-1-yl)phenylamino)nicotinamide], the figures for the IC50 in assay [2], in assay [3] and in assay [4] were above 1000 nM, 100 to 1000 nM and 10 to 100 nM, respectively. For the same compound, the inhibition at 1 µM in assay [5] stood at 7%.
`NC(=O)c1cnc(Nc2cccc(N3CCCCC3)c2)cc1N[C@H](CO)c1ccccc1` [Example 76, (S)-4-(2-hydroxy-1-phenylethylamino)-6-(3-(piperidin-1-yl)phenylamino)nicotinamide]: the IC50 in assay [2] is above 1000 nM; in assay [3], above 1000 nM; in assay [4], 10 to 100 nM. Moreover, the inhibition at 0.2 µM in assay [5] is 8%. Also, the inhibition at 1 µM in assay [5] amounted to 20%.
As to `COc1ccc(Nc2cc(NCc3c(F)cccc3F)c(C(N)=O)cn2)cc1` [Example 82, 4-(2,6-difluorobenzylamino)-6-(4-methoxyphenylamino)nicotinamide], the IC50 in assay [2] lay within 100 to 1000 nM; in assay [3] it was 100 to 1000 nM; in assay [4] it was 10 to 100 nM. The inhibition at 0.2 µM in assay [5] was determined as 7%. The inhibition at 1 µM in assay [5] stood at 34%.
For the compound `COc1ccc(Nc2cc(NCc3cc(F)ccc3F)c(C(N)=O)cn2)cc1` [Example 83, 4-(2,5-difluorobenzylamino)-6-(4-methoxyphenylamino)nicotinamide], the values for the IC50 in assay [2], in assay [3] and in assay [4] were 100 to 1000 nM, 100 to 1000 nM and 10 to 100 nM, respectively. The inhibition at 0.2 µM in assay [5] came out at 10%. Besides, the inhibition at 1 µM in assay [5] came out at 23%.
In the case of `NC(=O)c1cnc(Nc2ccc3c(c2)NC(=O)CO3)cc1NCc1ccccc1` [Example 84, 4-(benzylamino)-6-(3-oxo-3,4-dihydro-2H-benzo[b][1,4]oxazin-6-ylamino)nicotinamide], the IC50 is above 1000 nM in assay [2], 100 to 1000 nM in assay [3] and 10 to 100 nM in assay [4]. Further, the inhibition at 0.2 µM in assay [5] was determined as 3%. In addition, the inhibition at 1 µM in assay [5] was found to be 8%.
Taken in the same sequence, the figures for `COc1ccc(Nc2cc(NCc3cccc(F)c3)c(C(N)=O)cn2)cc1` [Example 91, 4-(3-fluorobenzylamino)-6-(4-methoxyphenylamino)nicotinamide] were above 1000 nM, 100 to 1000 nM, 10 to 100 nM, 6% and 16%.
In the case of `NC(=O)c1cnc(Nc2ccc(C(=O)N3CCC3)cc2)cc1NCc1cc(F)ccc1F` [Example 93, 6-(4-(azetidine-1-carbonyl)phenylamino)-4-(2,5-difluorobenzylamino)nicotinamide], the IC50 in assay [2] is 10 to 100 nM; in assay [3], 10 to 100 nM; in assay [4], 1 to 10 nM. Moreover, in assay [5], the inhibition at 0.2 µM worked out at 43%. Also, the inhibition at 1 µM in assay [5] is 76%.
Consider `CC(C)N1CCC(c2ccc(Nc3cc(NCc4ccccc4F)c(C(N)=O)cn3)cc2)CC1` [Example 108, 4-(2-fluorobenzylamino)-6-(4-(1-isopropylpiperidin-4-yl)phenylamino)nicotinamide], for which the figures for the IC50 in assay [2], in assay [3] and in assay [4] were 100 to 1000 nM, 10 to 100 nM and 1 to 10 nM, respectively. For the same compound, the inhibition at 0.2 µM in assay [5] amounted to 14%. The inhibition at 1 µM in assay [5] was 37%.
Taken in the same sequence, the figures for `NC(=O)c1cnc(Nc2cccc(C3CCN(C4CCCC4)CC3)c2)cc1NCc1ccccc1F` [Example 110, 6-(3-(1-cyclopentylpiperidin-4-yl)phenylamino)-4-(2-fluorobenzylamino)nicotinamide] were 100 to 1000 nM, 10 to 100 nM, 1 to 10 nM, 24% and 68%.
Regarding `CS(=O)(=O)N1CCC(c2ccc(Nc3cc(NCc4ccccc4F)c(C(N)=O)cn3)cc2)CC1` [Example 111, 4-(2-fluorobenzylamino)-6-(4-(1-(methylsulfonyl)piperidin-4-yl)phenylamino)nicotinamide], the results for the IC50 in assay [2], in assay [3] and in assay [4] were above 1000 nM, above 1000 nM and 10 to 100 nM, respectively. Besides, the inhibition at 0.2 µM in assay [5] amounted to 22%. In addition, the inhibition at 1 µM in assay [5] turned out to be 46%.
For the compound `CCS(=O)(=O)N1CCC(c2ccc(Nc3cc(NCc4ccccc4F)c(C(N)=O)cn3)cc2)CC1` [Example 112, 6-(4-(1-(ethylsulfonyl)piperidin-4-yl)phenylamino)-4-(2-fluorobenzylamino)nicotinamide], the IC50 in assay [2] was above 1000 nM; in assay [3] it was above 1000 nM; in assay [4], 10 to 100 nM. The inhibition at 0.2 µM in assay [5] turned out to be 8%. Besides, the inhibition at 1 µM in assay [5] stood at 42%.
Regarding `CN(C)C(=O)N1CCC(c2ccc(Nc3cc(NCc4ccccc4F)c(C(N)=O)cn3)cc2)CC1` [Example 114, 6-(4-(1-(dimethylcarbamoyl)piperidin-4-yl)phenylamino)-4-(2-fluorobenzylamino)nicotinamide], the IC50 was above 1000 nM in assay [2], 100 to 1000 nM in assay [3] and 10 to 100 nM in assay [4]. The inhibition at 0.2 µM in assay [5] turned out to be 14%. Besides, in assay [5], the inhibition at 1 µM stood at 51%.
